Test system: NCI-H1876 tumor spheroid viability
Assay: Anticancer human tumor NCI-H1876 cell line growth inhibition;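 also: spheroids exposed to compounds for seven days before the viability read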;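 as to viability, T/C: percent of DMSO vehicle control viability so 100% = vehicle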
Details: spheroids with HUVEC and MSC; for IC50: curve of first compound; for viability, T/C: stronger effect = lower value
Summary of the method: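 Single agents and combinations were tested on spheroids built from tumor cells plus HUVEC and hMSC, at half-log dilutions starting at or near clinical Cmax, else 10 microM; final DMSO 0.25% (v/v).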

Cn1ncnc1[C@H]1c2n[nH]c(=O)c3cc(F)cc(c23)N[C@@H]1c1ccc(F)cc1 + Cn1nnc2c(C(N)=O)ncn2c1=O
IC50 (second compound 1 µM): 43.2 nM | IC50 (second compound 3.16 µM): 60.8 nM | IC50 (second compound 10 µM): 16 nM | IC50 (second compound 31.6 µM): < 9.49 nM | IC50 (second compound 100 µM): < 9.49 nM | viability, T/C (second compound 1 µM, first compound 0.00949 µM): 70.1% | viability, T/C (second compound 1 µM, first compound 0.03 µM): 54.6% | viability, T/C (second compound 1 µM, first compound 0.0949 µM): 39% | viability, T/C (second compound 1 µM, first compound 0.3 µM): 25.1% | viability, T/C (second compound 1 µM, first compound 0.949 µM): 10.8% | viability, T/C (second compound 1 µM, first compound 3 µM): 5.26% | viability, T/C (second compound 3.16 µM, first compound 0.00949 µM): 72.4% | viability, T/C (second compound 3.16 µM, first compound 0.03 µM): 52.1% | viability, T/C (second compound 3.16 µM, first compound 0.0949 µM): 52.3% | viability, T/C (second compound 3.16 µM, first compound 0.3 µM): 20% | viability, T/C (second compound 3.16 µM, first compound 0.949 µM): 50% | viability, T/C (second compound 3.16 µM, first compound 3 µM): 15.5% | viability, T/C (second compound 10 µM, first compound 0.00949 µM): 56.8% | viability, T/C (second compound 10 µM, first compound 0.03 µM): 38.1% | viability, T/C (second compound 10 µM, first compound 0.0949 µM): 47.2% | viability, T/C (second compound 10 µM, first compound 0.3 µM): 15% | viability, T/C (second compound 10 µM, first compound 0.949 µM): 33.5% | viability, T/C (second compound 10 µM, first compound 3 µM): 5.45% | viability, T/C (second compound 31.6 µM, first compound 0.00949 µM): 29.2% | viability, T/C (second compound 31.6 µM, first compound 0.03 µM): 19.2% | viability, T/C (second compound 31.6 µM, first compound 0.0949 µM): 14.5% | viability, T/C (second compound 31.6 µM, first compound 0.3 µM): 12% | viability, T/C (second compound 31.6 µM, first compound 0.949 µM): 8.61% | viability, T/C (second compound 31.6 µM, first compound 3 µM): 4.86% | viability, T/C (second compound 100 µM, first compound 0.00949 µM): 13.8% | viability, T/C (second compound 100 µM, first compound 0.03 µM): 10.8% | viability, T/C (second compound 100 µM, first compound 0.0949 µM): 11.6% | viability, T/C (second compound 100 µM, first compound 0.3 µM): 9.19% | viability, T/C (second compound 100 µM, first compound 0.949 µM): 33.3% | viability, T/C (second compound 100 µM, first compound 3 µM): 4.67%

[2H]c1nc(C)nc([2H])c1-c1cc(NC[C@@H](C)c2cccc3c(C(=O)NC)ccnc23)ncn1 + COc1cc2c(cc1O)CCNC21CSC2c3c(OC(C)=O)c(C)c4c(c3C(COC1=O)N1C(O)C3Cc5cc(C)c(OC)c(O)c5C(C21)N3C)OCO4
IC50 (second compound 30 pM): > 10000 nM | IC50 (second compound 94.9 pM): > 10000 nM | IC50 (second compound 0.0003 µM): < 31.6 nM | IC50 (second compound 0.000949 µM): < 31.6 nM | IC50 (second compound 0.003 µM): < 31.6 nM | viability, T/C (second compound 30 pM, first compound 0.0316 µM): 102% | viability, T/C (second compound 30 pM, first compound 0.1 µM): 101% | viability, T/C (second compound 30 pM, first compound 0.316 µM): 101% | viability, T/C (second compound 30 pM, first compound 1 µM): 101% | viability, T/C (second compound 30 pM, first compound 3.16 µM): 100% | viability, T/C (second compound 30 pM, first compound 10 µM): 98% | viability, T/C (second compound 94.9 pM, first compound 0.0316 µM): 90.8% | viability, T/C (second compound 94.9 pM, first compound 0.1 µM): 94.2% | viability, T/C (second compound 94.9 pM, first compound 0.316 µM): 94.6% | viability, T/C (second compound 94.9 pM, first compound 1 µM): 94.5% | viability, T/C (second compound 94.9 pM, first compound 3.16 µM): 93.9% | viability, T/C (second compound 94.9 pM, first compound 10 µM): 85.7% | viability, T/C (second compound 0.0003 µM, first compound 0.0316 µM): 31% | viability, T/C (second compound 0.0003 µM, first compound 0.1 µM): 32.2% | viability, T/C (second compound 0.0003 µM, first compound 0.316 µM): 35.5% | viability, T/C (second compound 0.0003 µM, first compound 1 µM): 30% | viability, T/C (second compound 0.0003 µM, first compound 3.16 µM): 31.6% | viability, T/C (second compound 0.0003 µM, first compound 10 µM): 21.6% | viability, T/C (second compound 0.000949 µM, first compound 0.0316 µM): 3.38% | viability, T/C (second compound 0.000949 µM, first compound 0.1 µM): 2.4% | viability, T/C (second compound 0.000949 µM, first compound 0.316 µM): 2.32% | viability, T/C (second compound 0.000949 µM, first compound 1 µM): 2.39% | viability, T/C (second compound 0.000949 µM, first compound 3.16 µM): 2.46% | viability, T/C (second compound 0.000949 µM, first compound 10 µM): 3.2% | viability, T/C (second compound 0.003 µM, first compound 0.0316 µM): 0.5% | viability, T/C (second compound 0.003 µM, first compound 0.1 µM): 0.64% | viability, T/C (second compound 0.003 µM, first compound 0.316 µM): 0.5% | viability, T/C (second compound 0.003 µM, first compound 1 µM): 0.66% | viability, T/C (second compound 0.003 µM, first compound 3.16 µM): 0.74% | viability, T/C (second compound 0.003 µM, first compound 10 µM): 0.7%

Source: PubChem BioAssay AID1845207 (Molecular Pharmacology Branch, DTP, NCI, 2023)
